Measured values as given in patent US20250333406A1, “SULFONYL CYCLIC DERIVATIVES, AND COMPOSITIONS AND METHODS THEREOF” (Lysoway Therapeutics, Inc., priority 2023, published 2025).

The molecules below were run on TFEB (assay: TFEB Nuclear Translocation Assay). Details: read-out: EC50 of TFEB activation.
Format: cell-based
`CC(F)(F)c1ccc(S(=O)(=O)n2nc(N3CCC3C(F)(F)F)c3c(Cl)cccc32)cc1` (stereo not drawn) [Compound 104, 4-chloro-1-[4-(1,1-difluoroethyl)phenyl]sulfonyl-3-[2-(trifluoromethyl)azetidin-1-yl]indazole] gave an EC50 of no more than 1000 nM.
With `CC(C)S(=O)(=O)c1nc(S(=O)(=O)n2nc(N3CCN(c4ncc(F)cc4F)CC34CC4)c3c(F)cc(F)cc32)cs1` [Compound 198, 4-((3-(7-(3,5-difluoropyridin-2-yl)-4,7-diazaspiro [2.5]octan-4-yl)-4,6-difluoro-1H-indazol-1-yl)sulfonyl)-2-(isopropylsulfonyl) thiazole] the EC50 was 1000 to 10000 nM.
With `CC(F)(F)c1ccc(S(=O)(=O)n2nc(N3CCN(C(C)(C)CF)CC34CC4)c3c(Cl)cccc32)cc1` [Compound 128, 4-chloro-1-((4-(1,1-difluoroethyl)phenyl)sulfonyl)-3-(7-(1-fluoro-2-methylpropan-2-yl)-4,7-diazaspiro [2.5]octan-4-yl)-1H-indazole] the EC50 was no more than 1000 nM.
`CC(C)S(=O)(=O)c1ccc(S(=O)(=O)n2nc(N3CCN(c4ncc(F)cc4F)CC34CC4)c3c(Cl)cc(F)cc32)s1` [Compound 37, 4-chloro-3-[7-(3,5-difluoro-2-pyridyl)-4,7-diazaspiro [2.5]octan-4-yl]-6-fluoro-1-[(5-isopropylsulfonyl-2-thienyl)sulfonyl]indazole] showed an EC50 of no more than 1000 nM.
Work on `O=S(=O)(c1ccc(C(F)F)cc1)n1nc(N2CCN(c3ncc(F)cn3)CC2C2CC2)c2c(Cl)cccc21` (stereo not drawn) [Compound 112, 4-chloro-3-[2-cyclopropyl-4-(5-fluoropyrimidin-2-yl)piperazin-1-yl]-1-[4-(difluoromethyl)phenyl]sulfonyl-indazole] yielded an EC50 of no more than 1000 nM.
In the case of `O=S(=O)(c1ccc(S(=O)(=O)C(F)(F)F)cc1)n1nc(N2CCN(c3ncc(F)cn3)CC23CC3)c2c(Cl)cccc21` [Compound 52, 4-chloro-3-(7-(5-fluoropyrimidin-2-yl)-4,7-diazaspiro [2.5]octan-4-yl)-1-((4-((trifluoromethyl)sulfonyl)phenyl)sulfonyl)-1H-indazole], the EC50 is reported as no more than 1000 nM.
`CC(F)(F)c1ccc(S(=O)(=O)n2nc(N3CCN(C4COC4)CC34CC4)c3c(Cl)cccc32)cc1` [Compound 119, 4-chloro-1-((4-(1,1-difluoroethyl)phenyl)sulfonyl)-3-(7-(oxetan-3-yl)-4,7-diazaspiro[2.5]octan-4-yl)-1H-indazole] was tested, and the EC50 was no more than 1000 nM.
`CC(C)(C)S(=O)(=O)c1ccc(S(=O)(=O)n2nc(N3CCN(c4ncc(Cl)cn4)CC34CC4)c3c(Cl)cccc32)s1` [Compound 1, 1-[(5-tert-butylsulfonyl-2-thienyl)sulfonyl]-4-chloro-3-[7-(5-chloropyrimidin-2-yl)-4,7-diazaspiro [2.5]octan-4-yl]indazole] showed an EC50 of no more than 1000 nM.
`CC(F)(F)c1ccc(S(=O)(=O)n2nc(N3CCN(c4ncc(F)cn4)CC34CC4)c3c(Cl)ccc(F)c32)cc1` [Compound 103, 4-chloro-1-[4-(1,1-difluoroethyl)phenyl]sulfonyl-7-fluoro-3-[7-(5-fluoropyrimidin-2-yl)-4,7-diazaspiro [2.5]octan-4-yl]indazole] gave an EC50 of no more than 1000 nM.
In the case of `CC(C)(c1ccc(S(=O)(=O)n2nc(N3CCN(c4ncc(F)cn4)CC34CC4)c3c(Cl)cccc32)cc1)C(F)F` [Compound 99, 4-chloro-1-[4-(2,2-difluoro-1,1-dimethyl-ethyl)phenyl]sulfonyl-3-[7-(5-fluoropyrimidin-2-yl)-4,7-diazaspiro[2.5]octan-4-yl]indazole], the EC50 is reported as no more than 1000 nM.
`CC(C)S(=O)(=O)c1cccc(S(=O)(=O)n2nc(N3CCN(c4ncc(Cl)cn4)CC34CC4)c3c(Cl)cccc32)c1` [Compound 4, 4-chloro-3-[7-(5-chloropyrimidin-2-yl)-4,7-diazaspiro [2.5]octan-4-yl]-1-(3-isopropylsulfonylphenyl) sulfonyl-indazole] showed an EC50 of no more than 1000 nM.
`CC(C)S(=O)(=O)c1ccc(S(=O)(=O)n2nc(N3CCN(c4ncc(F)cn4)CC3(C)C)c3c(Cl)cccc32)cc1` [Compound 18, 4-chloro-3-(4-(5-fluoropyrimidin-2-yl)-2,2-dimethylpiperazin-1-yl)-1-((4-(isopropylsulfonyl)phenyl)sulfonyl)-1H-indazole] showed an EC50 of no more than 1000 nM.
For `CC(C)S(=O)(=O)c1ccc(S(=O)(=O)n2nc(N3CCN(c4ncc(F)cn4)C[C@@H]3C(F)(F)F)c3c(F)cccc32)cc1` [Compound 72, 4-fluoro-3-[(2R)-4-(5-fluoropyrimidin-2-yl)-2-(trifluoromethyl)piperazin-1-yl]-1-(4-isopropylsulfonylphenyl)sulfonyl-indazole], the EC50 was no more than 1000 nM.
In the case of `CC(C)S(=O)(=O)c1ccc(S(=O)(=O)n2nc(N3CCC(F)CC34CC4)c3c(Cl)cccc32)s1` (stereo not drawn) [Compound 11, 4-chloro-3-(7-fluoro-4-azaspiro [2.5]octan-4-yl)-1-[(5-isopropylsulfonyl-2-thienyl)sulfonyl]indazole], the EC50 is reported as no more than 1000 nM.
Molecule `O=S(=O)(c1ccn(S(=O)(=O)C2CC2)c1)n1nc(N2CCN(c3ncc(F)cn3)CC23CC3)c2c(F)cc(F)cc21` [Compound 174, 1-((1-(cyclopropylsulfonyl)-1H-pyrrol-3-yl)sulfonyl)-4,6-difluoro-3-(7-(5-fluoropyrimidin-2-yl)-4,7-diazaspiro [2.5]octan-4-yl)-1H-indazole] has an EC50 of no more than 1000 nM.
For `CC(C)(C)S(=O)(=O)n1ccc(S(=O)(=O)n2nc(N3CCN(c4ncc(F)cn4)CC34CC4)c3c(Cl)cc(F)cc32)c1` [Compound 171, 1-((1-(tert-butylsulfonyl)-1H-pyrrol-3-yl)sulfonyl)-4-chloro-6-fluoro-3-(7-(5-fluoropyrimidin-2-yl)-4,7-diazaspiro [2.5]octan-4-yl)-1H-indazole], the EC50 was no more than 1000 nM.
`CC(C)S(=O)(=O)c1ccc(S(=O)(=O)n2nc(N3CCN(c4ncc(Cl)cc4F)CC34CC4)c3c(F)ccc(F)c32)s1` [Compound 33, 3-[7-(5-chloro-3-fluoro-2-pyridyl)-4,7-diazaspiro [2.5]octan-4-yl]-4,7-difluoro-1-[(5-isopropylsulfonyl-2-thienyl)sulfonyl]indazole] gave an EC50 of no more than 1000 nM.
For `CC(C)S(=O)(=O)n1ccc(S(=O)(=O)n2nc(N3CCN(c4ncc(Cl)cc4F)CC34CC4)c3c(F)ccc(F)c32)c1` [Compound 148, 3-[7-(5-chloro-3-fluoro-2-pyridyl)-4,7-diazaspiro [2.5]octan-4-yl]-4,7-difluoro-1-(1-isopropylsulfonylpyrrol-3-yl) sulfonyl-indazole], the EC50 was no more than 1000 nM.
For `CC(C)S(=O)(=O)n1ccc(S(=O)(=O)n2nc(N3CCC(N(C)C)CC34CC4)c3c(Cl)cc(F)cc32)c1` (stereo not drawn) [Compound 186, 4-[4-chloro-6-fluoro-1-(1-isopropylsulfonylpyrrol-3-yl)sulfonyl-indazol-3-yl]-N, N-dimethyl-4-azaspiro [2.5]octan-7-amine], the EC50 was 1000 to 10000 nM.
`CC(C)S(=O)(=O)c1ccc(S(=O)(=O)n2nc(N3CCN(C(=O)C(F)(F)F)C[C@H]3C(F)(F)F)c3c(Cl)cccc32)cc1` (single isomer, unassigned) [Compound 71] showed an EC50 of no more than 1000 nM.
Molecule `CC(C)S(=O)(=O)n1ccc(S(=O)(=O)n2nc(N3CCN(c4nc(Cl)ns4)CC34CC4)c3c(Cl)cc(F)cc32)c1` [Compound 156, 3-chloro-5-[4-[4-chloro-6-fluoro-1-(1-isopropylsulfonylpyrrol-3-yl)sulfonyl-indazol-3-yl]-4,7-diazaspiro [2.5]octan-7-yl]-1,2,4-thiadiazole] has an EC50 of no more than 1000 nM.
Molecule `CC(C)S(=O)(=O)n1ccc(S(=O)(=O)n2nc(N3CCN(c4ncc(F)cc4F)CC34CC4)c3c(Cl)cccc32)c1` [Compound 141, 4-chloro-3-[7-(3,5-difluoro-2-pyridyl)-4,7-diazaspiro [2.5]octan-4-yl]-1-(1-isopropylsulfonylpyrrol-3-yl) sulfonyl-indazole] has an EC50 of no more than 1000 nM.
`CC(C)S(=O)(=O)n1ccc(S(=O)(=O)n2nc(N3CCC(=O)CC34CC4)c3c(Cl)cc(F)cc32)c1` [Compound 187, 4-[4-chloro-6-fluoro-1-(1-isopropylsulfonylpyrrol-3-yl)sulfonyl-indazol-3-yl]-4-azaspiro [2.5]octan-7-one] gave an EC50 of no more than 1000 nM.
In the case of `CC(C)S(=O)(=O)c1ccc(S(=O)(=O)n2nc(N3CCCC34CC4)c3c(Cl)cccc32)s1` [Compound 17, 4-chloro-1-((5-(isopropylsulfonyl)thiophen-2-yl)sulfonyl)-3-(4-azaspiro [2.4]heptan-4-yl)-1H-indazole], the EC50 is reported as no more than 1000 nM.
`CC(C)S(=O)(=O)c1ccc(S(=O)(=O)n2nc(N3CCN(c4ncc(Cl)s4)CC34CC4)c3c(Cl)cc(F)cc32)s1` [Compound 39, 5-chloro-2-(4-(4-chloro-6-fluoro-1-((5-(isopropylsulfonyl)thiophen-2-yl)sulfonyl)-1H-indazol-3-yl)-4,7-diazaspiro [2.5]octan-7-yl) thiazole] gave an EC50 of no more than 1000 nM.
In the case of `CC(C)S(=O)(=O)c1ccc(S(=O)(=O)n2nc(N3CCN(c4ncc(F)cn4)CC34CC4)c3c(Cl)cccc32)s1` [Compound 44, 4-chloro-3-[7-(5-fluoropyrimidin-2-yl)-4,7-diazaspiro [2.5]octan-4-yl]-1-[(5-isopropylsulfonyl-2-thienyl)sulfonyl]indazole], the EC50 is reported as no more than 1000 nM.
With `CC(C)S(=O)(=O)c1nc(S(=O)(=O)n2nc(N3CCN(c4ncc(F)cc4F)CC34CC4)c3c(Cl)cc(F)cc32)cs1` [Compound 197, 4-[4-chloro-3-[7-(3,5-difluoro-2-pyridyl)-4,7-diazaspiro [2.5]octan-4-yl]-6-fluoro-indazol-1-yl]sulfonyl-2-isopropylsulfonyl-thiazole] the EC50 was 1000 to 10000 nM.
Work on `CC(C)S(=O)(=O)c1ccc(S(=O)(=O)n2nc(N3CCC[C@@H]3C(F)(F)F)c3c(Cl)cccc32)cc1` [Compound 109, 4-chloro-1-(4-isopropylsulfonylphenyl)sulfonyl-3-[(2R)-2-(trifluoromethyl)pyrrolidin-1-yl]indazole] yielded an EC50 of no more than 1000 nM.
`O=S(=O)(c1ccc(C2(C(F)(F)F)CC2)cc1)n1nc(N2CCN(c3ncc(F)cn3)CC23CC3)c2c(Cl)cccc21` [Compound 101, 4-chloro-3-[7-(5-fluoropyrimidin-2-yl)-4,7-diazaspiro [2.5]octan-4-yl]-1-[4-[1-(trifluoromethyl)cyclopropyl]phenyl]sulfonyl-indazole] showed an EC50 of no more than 1000 nM.
`CC(C)S(=O)(=O)n1ccc(S(=O)(=O)n2nc(N3CCCC3C(F)(F)F)c3c(Cl)cc(F)cc32)c1` (stereo not drawn) [Compound 184, 4-chloro-6-fluoro-1-(1-isopropylsulfonylpyrrol-3-yl)sulfonyl-3-[2-(trifluoromethyl)pyrrolidin-1-yl]indazole] showed an EC50 of no more than 1000 nM.
